Data set [1] deals with E. coli. Description: Minimum bactericidal concentration (MBC). The class given is cell-based. Conditions: Escherichia coli.
For data set [2], the system named is K. pneumonia. Briefly: MIC by tube dilution method. The format is cell-based. Particulars: Klebsiella pneumoniae, 24 h, 24 h at 37 °C, read-out: MIC.
Data set [3] relates to S. enterica. Description: MIC by tube dilution method. The format is cell-based. Particulars: Salmonella enterica, 24 h, 24 h at 37 °C, read-out: MIC.
Data set [4] deals with E. coli. Briefly: MIC by tube dilution method. Particulars: Escherichia coli, 24 h, 24 h at 37 °C, read-out: MIC. The class given is cell-based.
In data set [5] the test system is B. subtilis. Briefly: MIC by tube dilution method. The class given is cell-based. Particulars: Bacillus subtilis, 24 h at 37 °C, read-out: MIC.
Data set [6] concerns B. subtilis. Description: Minimum bactericidal concentration (MBC). The format is cell-based. Particulars: Bacillus subtilis.
In data set [7] the test system is K. pneumonia. Briefly: Minimum bactericidal concentration (MBC). The class given is cell-based. Conditions: Klebsiella pneumoniae.
Data set [8] relates to S. aureus. Briefly: MIC by tube dilution method. The class given is cell-based. Particulars: Staphylococcus aureus, 24 h at 37 °C, read-out: MIC.
Data set [9] relates to S. enterica. Description: Minimum bactericidal concentration (MBC). The format is cell-based. Conditions: Salmonella enterica, read-out: MBC/MFC. As for the experimental part:
After MIC assessment, the indole derivatives (DS1–DS21), were additionally evaluated for MBC and MFC values. […] The 10–15 ml of nutrient agar and Sabouraud dextrose agar was added to the petri plates for bacterial and fungal samples respectively with gentle shaking of plates in order to mix the culture throughout the media. Allowed the media to solidify. The petri plates were then incubated for the predefined time and temperature as referenced already for bacterial and fungal cultures respectively. The plates were then investigated visually for the development of microbial growth. The MBC and MFC were stated as the minimum concentration of the compounds in aliquots showing no visual growth after incubation.

Data set [10] relates to S. aureus. Briefly: Minimum bactericidal concentration (MBC). The class given is cell-based. Conditions: Staphylococcus aureus.
The subject of data set [11] is A. niger. Briefly: MIC by tube dilution method. Conditions: Aspergillus niger, 168 h, 7 days at 25 °C, read-out: MIC. The class given is cell-based.
Data set [12] concerns A. niger. Description: Minimum fungicidal concentration (MFC). The format is cell-based. Particulars: Aspergillus niger, read-out: MBC/MFC.
For data set [13], the system named is A. fumigatus. Briefly: MIC by tube dilution method. Particulars: Aspergillus fumigatus, 168 h, 7 days at 25 °C, read-out: MIC. The format is cell-based.
In data set [14] the test system is A. fumigatus. Briefly: Minimum fungicidal concentration (MFC). The format is cell-based. Particulars: Aspergillus fumigatus, read-out: MBC/MFC.

≈ marks a conversion by molar mass, not a printed value. Like-named read-outs stand apart in the source and are kept apart here.

As to `CO/N=C(\C(=O)N[C@@H]1C(=O)N2C(C(=O)O)=C(COC(C)=O)CS[C@H]12)c1csc(N)n1` [CFT, cefotaxime, reference compound], the MBC was found to be 15.6 µg/mL (≈ 34.3 µM) in the data set with E. coli [1]; 15.6 µg/mL (≈ 34.3 µM) against B. subtilis [6]; 3.9 µg/mL (≈ 8.56 µM) against K. pneumonia [7]; 31.2 µg/mL (≈ 68.6 µM) with S. enterica [9] (S. enterica, MBC); 31.2 µg/mL (≈ 68.6 µM) with S. aureus [10]. Moreover, the MIC in the data set on K. pneumonia [2] stood at 1.95 µg/mL (≈ 4.28 µM); in the data set on S. enterica [3], 15.6 µg/mL (≈ 34.3 µM); in the data set with E. coli [4] it was 1.95 µg/mL (≈ 4.28 µM); in the data set on B. subtilis [5] it was 15.6 µg/mL (≈ 34.3 µM); in the data set with S. aureus [8], 15.6 µg/mL (≈ 34.3 µM).
As to `O=C(O)c1cn(C2CC2)c2cc(N3CCNCC3)c(F)cc2c1=O` [CPR, ciprofloxacin, reference compound], the MBC turned out to be 31.2 µg/mL (≈ 94.3 µM) in the data set with E. coli [1]; 31.2 µg/mL (≈ 94.3 µM) against B. subtilis [6]; 7.81 µg/mL (≈ 23.6 µM) in the data set on K. pneumonia [7]; 31.2 µg/mL (≈ 94.3 µM) in the data set on S. enterica [9] (S. enterica, MBC); 62.5 µg/mL (≈ 189 µM) in the data set on S. aureus [10]. For the same compound, the MIC was 7.81 µg/mL (≈ 23.6 µM) in the data set on K. pneumonia [2]; 15.6 µg/mL (≈ 47.1 µM) in the data set on S. enterica [3]; 3.9 µg/mL (≈ 11.8 µM) in the data set with E. coli [4]; 7.81 µg/mL (≈ 23.6 µM) with B. subtilis [5]; 1.95 µg/mL (≈ 5.89 µM) with S. aureus [8].
`C/C(=N\Cc1ccco1)c1ccc(/N=N/c2c[nH]c3ccccc23)cc1` [DS-1, (E)-N-(2-Furylmethyl)-1-[4-[(E)-1H-indol-3-ylazo]phenyl]ethanimine] had a melting point of 315 to 320 °C. In addition, the MBC in the data set with E. coli [1] was found to be 125 µg/mL (≈ 365 µM). Also, the MIC with K. pneumonia [2] was determined as 3.9 µg/mL (≈ 11.4 µM). In the data set with A. niger [11], the MIC came out at 125 µg/mL (≈ 365 µM). For the same compound, in the data set with A. niger [12], the MFC came out at 125 µg/mL (≈ 365 µM). Moreover, the MIC with A. fumigatus [13] worked out at 62.5 µg/mL (≈ 183 µM). In addition, the MFC in the data set with A. fumigatus [14] was 125 µg/mL (≈ 365 µM). The MIC with S. enterica [3] stood at 62.5 µg/mL (≈ 183 µM). Moreover, the MIC with E. coli [4] came out at 15.6 µg/mL (≈ 45.6 µM). Besides, in the data set with B. subtilis [5], the MIC came to 62.5 µg/mL (≈ 183 µM). The MBC in the data set with B. subtilis [6] is 125 µg/mL (≈ 365 µM). In addition, in the data set with S. aureus [8], the MIC is 62.5 µg/mL (≈ 183 µM). For the same compound, in the data set with S. enterica [9] (S. enterica, MBC), the MBC was 62.5 µg/mL (≈ 183 µM). In addition, in the data set on S. aureus [10], the MBC came to 125 µg/mL (≈ 365 µM).
`C/C(=N/c1nnc(-c2ccc([N+](=O)[O-])cc2)s1)c1ccc(/N=N\c2c[nH]c3ccc([N+](=O)[O-])cc23)cc1` [DS-5, (Z)-N-(1-(4-((Z)-(5-Nitro-1H-indol-3-yl)diazenyl)phenyl)ethylidene)-5-(4-nitrophenyl)-1,3,4-thiadiazol-2-amine] yielded a melting point of 160 to 165 °C. The same compound returned an MBC in the data set with E. coli [1] of 31.2 µg/mL (≈ 61 µM). Also, the MIC in the data set with K. pneumonia [2] is 3.9 µg/mL (≈ 7.61 µM). Moreover, in the data set with A. niger [11], the MIC was determined as 62.5 µg/mL (≈ 122 µM). For the same compound, the MFC in the data set with A. niger [12] came out at 125 µg/mL (≈ 244 µM). For the same compound, in the data set with A. fumigatus [13], the MIC came to 125 µg/mL (≈ 244 µM). In addition, the MFC in the data set on A. fumigatus [14] was determined as 125 µg/mL (≈ 244 µM). Further, the MIC in the data set on S. enterica [3] amounted to 31.2 µg/mL (≈ 61 µM). In the data set on E. coli [4], the MIC was found to be 1.95 µg/mL (≈ 3.8 µM). In the data set with B. subtilis [5], the MIC is 62.5 µg/mL (≈ 122 µM). Besides, the MBC against B. subtilis [6] amounted to 125 µg/mL (≈ 244 µM). Further, the MBC against K. pneumonia [7] amounted to 15.6 µg/mL (≈ 30.5 µM). In addition, the minimal inhibitory concentration (MIC) in the data set with S. aureus [8] turned out to be 125 µg/mL (≈ 244 µM). In addition, in the data set on S. enterica [9] (S. enterica, MBC), the MBC worked out at 62.5 µg/mL (≈ 122 µM). In the data set with S. aureus [10], this compound displayed an MBC of 125 µg/mL (≈ 244 µM).
The compound `CCc1nnc(/N=C(/C)c2ccc(/N=N\c3c[nH]c4ccccc34)cc2)s1` [DS-7, (Z)-N-(1-(4-((Z)-(1H-Indol-3-yl)diazenyl)phenyl)ethylidene)-5-ethyl-1,3,4-thiadiazol-2-amine] had a melting point of 145 to 150 °C. Further, the MBC in the data set with E. coli [1] came to 31.2 µg/mL (≈ 83.5 µM). For the same compound, the MIC in the data set with K. pneumonia [2] was 3.9 µg/mL (≈ 10.4 µM). Besides, the MIC in the data set on A. niger [11] was found to be 62.5 µg/mL (≈ 167 µM). The MFC in the data set with A. niger [12] was determined as 125 µg/mL (≈ 334 µM). Also, the MIC in the data set with A. fumigatus [13] turned out to be 62.5 µg/mL (≈ 167 µM). Moreover, in the data set on A. fumigatus [14], the MFC was determined as 125 µg/mL (≈ 334 µM). Moreover, the MIC in the data set with S. enterica [3] is 31.2 µg/mL (≈ 83.5 µM). The MIC in the data set on E. coli [4] amounted to 7.81 µg/mL (≈ 20.9 µM). In addition, the MIC in the data set with B. subtilis [5] stood at 125 µg/mL (≈ 334 µM). The MBC in the data set on B. subtilis [6] is 125 µg/mL (≈ 334 µM). Also, the MBC against K. pneumonia [7] was 16.2 µg/mL (≈ 43.4 µM). The MIC with S. aureus [8] amounted to 62.5 µg/mL (≈ 167 µM). Also, the MBC with S. enterica [9] stood at 31.2 µg/mL (≈ 83.5 µM). Further, in the data set on S. aureus [10], the MBC came to 125 µg/mL (≈ 334 µM).
`C/C(=N/c1ccc(S(=O)(=O)Nc2ccccn2)cc1)c1ccc(/N=N\c2c[nH]c3ccccc23)cc1` [DS-11, 4-((Z)-(1-(4-((Z)-(1H-Indol-3-yl)diazenyl)phenyl)ethylidene)amino)-N-(pyridin-2-yl)benzenesulfonamide]: the melting point is 135 to 140 °C. In the data set with E. coli [1], this compound came in with an MBC of 62.5 µg/mL (≈ 126 µM). The minimum inhibitory concentration (MIC) in the data set on K. pneumonia [2] was 15.6 µg/mL (≈ 31.6 µM). Further, the MIC in the data set on A. niger [11] was 125 µg/mL (≈ 253 µM). Moreover, the MFC in the data set on A. niger [12] turned out to be 125 µg/mL (≈ 253 µM). Further, the MIC with A. fumigatus [13] was 62.5 µg/mL (≈ 126 µM). In the data set on A. fumigatus [14], the MFC was 125 µg/mL (≈ 253 µM). The MIC in the data set on S. enterica [3] turned out to be 62.5 µg/mL (≈ 126 µM). Also, the MIC in the data set with E. coli [4] came to 3.9 µg/mL (≈ 7.89 µM). Further, the MIC with B. subtilis [5] was determined as 31.2 µg/mL (≈ 63.2 µM). This compound also showed an MBC in the data set with B. subtilis [6] of 125 µg/mL (≈ 253 µM). Further, in the data set on K. pneumonia [7], the MBC was 31.2 µg/mL (≈ 63.2 µM). In addition, the MIC in the data set on S. aureus [8] was found to be 31.2 µg/mL (≈ 63.2 µM). Moreover, in the data set on S. enterica [9] (S. enterica, MBC), the MBC turned out to be 125 µg/mL (≈ 253 µM). The compound further showed an MBC with S. aureus [10] of 62.5 µg/mL (≈ 126 µM).
